Measured values reported in patent publication US20150259319A1, “AROMATIC ALKENOIC ACID DERIVATIVES” (Symrise AG, priority 2014, published 2015).

Test system: human neuroblastoma cells (SH-SY5Y)
Assay: Serotonin release of SH-SY5Y cells after stimulation (Serotonin-ELISA, standardized to DNA content)
Settings: for Serotonin release [% control]: 3 minutes stimulation in Krebs-Ringer HEPES buffer
Excerpt: After serotonin release, the cells are harvested with trypsin and, after a vitality test by trypan blue staining, sown in a defined number of cells in 35 mm cell culture dishes.
The cells are lysed with a sodium laurylsarcosinate-containing buffer and the DNA content is ascertained with the aid of a NanoQuant plate (Tecan, Ménnendorf, Switzerland) for standardization of the serotonin release.

| Structure (SMILES) | Serotonin release [% control] (0.01 μM compound) | Serotonin release [% control] (0.1 μM compound) | rise in serotonin release compared to the control (1 μM compound) [%] | Serotonin release [% control] (1 μM compound) | Serotonin release [% control] (10 μM compound) |
| --- | --- | --- | --- | --- | --- |
| O=C(/C=C/C=C/CCc1ccc2c(c1)OCO2)N1CCCCC1 [Compound 3, 2E,4E-7-(1,3-Benzodioxol-5-yl)-1-(1-piperidyl)hepta-2,4-dien-1-one] | 161 | 141 | 280 | 283 | 226 |
| COC(=O)/C=C/C=C/CCc1ccc2c(c1)OCO2 [Compound 4, 2E,4E-Methyl 7-(1,3-benzodioxol-5-yl)hepta-2,4-dienoate] | 129 | 123 | 240 | 239 | 171 |
